Source: paper PMC10439952, “JT002, a small molecule inhibitor of the NLRP3 inflammasome for the treatment of autoinflammatory disorders” (Scientific Reports, 2023)

System: autocatalytic cleavage of pro-caspase-1 (p45) into the p10 subunit
Test: Western blot for caspase-1 p10 in LPS + nigericin stimulated mouse BMDM lysates and supernatants
Format: cell-based
Details: LPS + nigericin treated mBMDMs, compound 10 µM
Method: BMDMs were activated with LPS and nigericin as described above and were lysed in situ with 50 μL of 4× NuPAGE LDS sample buffer (Fisher Scientific, Hampton, NH) + 5% β-mercaptoethanol and prepared for polyacrylamide gel electrophoresis. Samples were run on NuPAGE Bis–Tris gels (Fisher Scientific, Hampton, NH) and transferred to polyvinylidene difluoride (PVDF) membranes (Fisher Scientific, Hampton, NH) using the iBlot® 2 Dry Blotting System (Fisher Scientific, Hampton, NH). Washed PVDF membranes were blocked and then probed with the following primary antibodies: procaspase-1 + p10 + p12 [EPR16883] (Abcam, Cambridge, MA), β-actin (AC-74, Sigma-Aldrich, St. Louis, MO) and NLRP3 [Cryo-2] (AdipoGen Life Sciences, San Diego, CA). Bound primary antibodies were detected using HRP-labeled secondary antibodies and membranes were imaged with an Azure c300 imager (Azure Biosystems, Dublin, CA). Bands were quantitated using ImageJ software.

`CO[C@@H]1COc2c(S(=O)(=O)NC(=O)Nc3c4c(cc5c3CCC5)CCC4)cnn2C1` [JT002] was tested, and the “formation of the caspase-1 p10 subunit (autocatalytic cleavage of pro-caspase-1)” value was “blocked formation of the p10 subunit and its release from the cell”.
